Experimental data taken from patent US5981181A, “DNA sequences with oligosaccharide transporter, plasmids bacteria and plants containing a transporter as well as a process for the preparation and transformation of yeast strains for identification of the transporter” (Hoechst Schering AgrEvo GmbH, priority 1992, dated 1999).

Key:
[1] = biological target: T1, sucrose transporter from spinach (Spinacia oleracea, UniProt Q03411); experiment: cell-based
T1 construct: which contain, as inserts, the cDNA for the sucrose transporter from spinach; expressed in transfected cells; host or cells: Saccharomyces cerevisiae YSH2.64-1A suc- with integrated potato sucrose synthase (susy), transformed with YEplac112A1NE-S21
T1 sequence (Q03411 1-525): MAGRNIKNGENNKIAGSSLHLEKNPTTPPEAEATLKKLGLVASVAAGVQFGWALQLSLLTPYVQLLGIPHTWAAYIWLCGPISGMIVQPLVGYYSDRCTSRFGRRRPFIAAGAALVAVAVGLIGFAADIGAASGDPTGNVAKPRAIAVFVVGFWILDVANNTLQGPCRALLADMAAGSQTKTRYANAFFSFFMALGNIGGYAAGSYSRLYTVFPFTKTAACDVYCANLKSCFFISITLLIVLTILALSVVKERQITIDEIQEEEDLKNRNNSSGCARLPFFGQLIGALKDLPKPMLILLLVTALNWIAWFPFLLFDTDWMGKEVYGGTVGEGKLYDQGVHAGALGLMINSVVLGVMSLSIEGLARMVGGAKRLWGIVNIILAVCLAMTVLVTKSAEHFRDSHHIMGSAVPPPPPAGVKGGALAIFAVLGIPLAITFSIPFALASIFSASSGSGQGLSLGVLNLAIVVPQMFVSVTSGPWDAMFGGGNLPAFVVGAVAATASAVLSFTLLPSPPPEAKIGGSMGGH
Protocol: Time pattern of the uptake of sucrose in yeast cells. "pmol/mg cells"=amount of the ^14 C-labelled sucrose in pmol taken up in relation to the moisture weight of the yeast cells per mg; "112"=starting strain (without transporter); "+Glucose"=pre-incubation of the cells in a medium of 10 mM glucose; "-Glucose"=no pre-incubation of the cells; […], carbonyl cyanide m-chlorophenylhydrazone (CCCP) in a concentration of 2.5 μM; […] p-chloromercuribenzenesulfonicacid (PCMBS) in a concentration of 500 μM; […] antimycin in a concentration of 10 μM.
After centrifuging the culture, the cells were subjected to a pre-incubation for 5 minutes in a glucose containing medium and then taken up in a medium containing ^14 C-labelled sucrose. The uptake of the labelled sucrose was measured by the process described by Cirillo (1989, Meth Enzymol 174: 617-622). The uptake of the labelled sucrose without preincubation with glucose was compared with that with co-incubation with the inhibitors carbonyl cyanide m-chlorophenylhydrazone(CCCP), p-chloromercuribenzenesulfonic acid (PCMBS) and antimycin.

[2] = biological target: T1, sucrose transporter from spinach; experiment: Competition experiment with various sugars as competitor for the labelled sucrose in yeast YEplac112A1NE-S21; assay type: cell-based; details: in relation to YEplac112A1NE-S21 control = 100; for activity at 2000 µM: 2mM competitor; for activity at 2000 µM / activity at 10000 µM: read-out: sucrose transport (%)
Protocol: The yeast transformand YEplac112A1NE-S21, corresponding to that obtained in Example 2, was grown in liquid medium until the culture had reached the logarithmic phase. After centrifuging the culture, the cells were subjected to a pre-incubation for 5 minutes in a glucose containing medium and then taken up in a medium containing ^14 C-labelled sucrose. The uptake of the labelled sucrose was measured by the process described by Cirillo (1989, Meth Enzymol 174: 617-622). The uptake of the labelled sucrose without preincubation with glucose was compared with that with co-incubation with the inhibitors carbonyl cyanide m-chlorophenylhydrazone(CCCP), p-chloromercuribenzenesulfonic acid (PCMBS) and antimycin. The calculated reduction of the sucrose uptake by the inhibitors is shown in table I. A competition experiment with various sugars as competitor for the labelled sucrose, from which the specificity of the transporter can be read off, is shown in table II.

[3] = tested on: sucrose transport through the membrane; details: plasma membranes; Slone & Buckhout, 1991; cited from earlier work
[4] = read-out: sucrose transport (%)

`O=[N+]([O-])c1ccc(O)c([N+](=O)[O-])c1` [2,4-DNP, 2,4dinitrophenol] gave an activity at 25 µM [1, 4] of 61% and an activity at 100 µM [1, 4] of 9%.

In the case of `OC[C@H]1O[C@@](CO)(O[C@H]2O[C@H](CO)[C@@H](O)[C@H](O)[C@H]2O)[C@@H](O)[C@@H]1O` [sucrose], the activity at 2000 µM [2] is listed as 28% and the Km [3] is listed as about 1000 µM.

With antimycin A the “sucrose transport (%)” value ([1]; 10μM inhibitor, in relation to YEplac112A1NE-S21 control = 100) was 59%.

Molecule `OC[C@H]1OC(Oc2ccccc2)[C@H](O)[C@@H](O)[C@@H]1O` (some centres unmarked) [phenylglucoside] has an activity at 2000 µM [2] of 7%.

Work on `OC[C@H]1O[C@H](O[C@H]2[C@H](O)[C@@H](O)[C@H](O)O[C@@H]2CO)[C@H](O)[C@@H](O)[C@@H]1O` [maltose] yielded an activity at 2000 µM [2] of 58% and an activity at 10000 µM ([2]; 10mM competitor) of 37%.

For `O=[As]([O-])([O-])O.[Na+].[Na+]` [sodium arsenate], the “sucrose transport (%)” value ([1]; 1mM inhibitor, in relation to YEplac112A1NE-S21 control = 100) was 34%.

For `OC[C@H]1O[C@H](OC[C@H]2OC(O)(CO)[C@@H](O)[C@@H]2O)[C@H](O)[C@@H](O)[C@@H]1O` (some centres unmarked) [palatinose], the “sucrose transport (%)” value ([2]; 10mM competitor) was 102%.

Molecule `O=C(CCc1ccc(O)cc1)c1c(O)cc(O)cc1O[C@@H]1O[C@H](CO)[C@@H](O)[C@H](O)[C@H]1O` [phloridzin] has an activity at 2000 µM [2] of 16%.

`OC[C@H]1O[C@H](O[C@H]2O[C@H](CO)[C@@H](O)[C@H](O)[C@H]2O)[C@H](O)[C@@H](O)[C@@H]1O` [trehalose] showed an activity at 10000 µM ([2]; 10mM competitor) of 103%.

With `O=S(=O)(O)c1cc[c]([Hg][Cl])cc1` [PCMBS, p-chloromercuribenzenesulfonic acid] the “sucrose transport (%)” value ([1]; 25μM inhibitor, in relation to YEplac112A1NE-S21 control = 100) was 73% and the “sucrose transport (%)” value ([1]; 100μM inhibitor, in relation to YEplac112A1NE-S21 control = 100) was 21%.

`OC[C@H]1O[C@@H](O[C@H]2[C@H](O)[C@@H](O)C(O)O[C@@H]2CO)[C@H](O)[C@@H](O)[C@H]1O` (some centres unmarked) [lactose] showed an activity at 2000 µM [2] of 91%.

Work on `N#CC(C#N)=NNc1cccc(Cl)c1` [CCCP, carbonyl cyanide m-chlorophenylhydrazone] yielded an activity at 0.5 µM ([1]; 0.5μM inhibitor, in relation to YEplac112A1NE-S21 control = 100, read-out: sucrose transport (%)) of 65% and an activity at 2.5 µM ([1]; 2.5μM inhibitor, in relation to YEplac112A1NE-S21 control = 100, read-out: sucrose transport (%)) of 21%.
